According to patent publication US20110033946A1, “DETECTION OF SHORT-CHAIN FATTY ACIDS IN BIOLOGICAL SAMPLES” (HEMAQUEST PHARMACEUTICALS, INC., priority 2009, published 2011):
Like-named read-outs stand apart in the source and are kept apart here.

Legend:
[1] = Stock solution stability at approximately 4° C. (old vs new stock peak areas); assay type: physicochemical; details: for Stock solution stability, RE % (to New) of old stock peak area: approximately 4° C.
Method: (§1) The following LC-MS/MS conditions were applied for the analysis of underivatized sodium 2,2-dimethylbutyrate and DMV for stock solution stability analysis (2 to 3.5 month), and system suitability associated with these analyses: The following samples were also analyzed either in conjunction with one of the precision and accuracy runs or in one of the additional validation runs. Samples from six lots of control human plasma for specificity. Samples from six lots of control human plasma fortified with internal standard for specificity. Two concentration levels of unextracted QC-samples in triplicate (solvent standards) were analyzed for the evaluation of the recovery of sodium 2,2-dimethylbutyrate and DMV in human plasma. Two levels of QC samples (Low QC and High QC in triplicate) were subjected to three freeze/thaw cycles at approximately −70° C. prior to extraction to evaluate freeze/thaw stability. Two levels of QC samples (Low QC and High QC in triplicate) were placed on the bench top for approximately 17 hours prior to extraction for the evaluation of the bench top stability. Triplicate low QC samples and triplicate high QC samples were stored for one month and three months in a freezer at approximately −70° C., and then extracted and analyzed to evaluate long term stability in human plasma. Two levels of extracted QC samples (Low QC and High QC) were re-analyzed after approximately 71 hours in the autosampler at room temperature to evaluate the extract autosampler stability. Two levels of extracted QC samples (Low QC and High QC) were re-analyzed after approximately 8 hours in the freezer at approximately −20° C. to evaluate the extract freeze stability. Three aliquots of a dilution QC sample diluted 10-fold. Triplicate dilutions of the old stock solution (stored at approximately 4° C.) and new stock solutions prepared at intervals of two weeks and one month. Statistical calculations in the report tables were calculated from unrounded concentration values taken directly from the raw data. The concentration values were rounded for display purposes. Fresh stock solutions of sodium 2,2-dimethylbutyrate were prepared at intervals of two weeks and 1, 2, 3 and 3.5 months after the initial standard preparation. Similarly, the stability intervals for DMV were two weeks and 1, 2 and 3 months. The initial (or old) stock solutions and the fresh stock solutions were diluted into the calibration standard range and analyzed. The peak areas for the fresh (new) and old standard solutions were compared. Beginning with the 2-month stability analysis, sodium 2,2-dimethylbutyrate and DMV stock solutions were analyzed underivatized. This was done since the peak areas of both sodium 2,2-dimethylbutyrate and DMV varied among replicate derivatized preparations. Analyzing the standard solutions underivatized was a simpler procedure which gave more accurate and precise results

[2] = assay type: physicochemical, human; details: for Extract freezer stability, Mean concentration / Extract freezer stability, RE % (mean vs nominal): human, 8 h
Method: as §1, with “The” for “The following LC-MS/MS conditions were applied for the analysis of underivatized sodium 2,2-dimethylbutyrate and DMV for stock solution stability analysis (2 to 3.5 month), and system suitability associated with these analyses: The”, “purposes.” for “purposes. Fresh stock solutions of sodium 2,2-dimethylbutyrate were prepared at intervals of two weeks and 1, 2, 3 and 3.5 months after the initial standard preparation. Similarly, the stability intervals for DMV were two weeks and 1, 2 and 3 months. The initial (or old) stock solutions and the fresh stock solutions were diluted into the calibration standard range and analyzed. The peak areas for the fresh (new) and old standard solutions were compared. Beginning with the 2-month stability analysis, sodium 2,2-dimethylbutyrate and DMV stock solutions were analyzed underivatized. This was done since the peak areas of both sodium 2,2-dimethylbutyrate and DMV varied among replicate derivatized preparations. Analyzing the standard solutions underivatized was a simpler procedure which gave more accurate and precise results”
QC-Low and QC-High extract samples in triplicate were analyzed and then stored in a −20° C. freezer for approximately 8 hours. These QC samples were then re-analyzed to evaluate the extract freezer stability. The CV % values for the QC-Low and QC-High stability samples are 8.6% and 1.2%, respectively. To calculate the RE %, the measured mean concentration was compared to the nominal concentration. The RE % values for the QC-Low and QC-High stability samples are −6.3% and −13.0%, respectively.

[3] = Stock solution stability at nominal 4° C. (Example 5); assay type: physicochemical; details: nominal temperature of 4° C.
Method: In method I, the mobile phase of liquid chromatography was run on 0.1% formic acid in acetonitrile, and the elution volume was 10 ul. In method II, the mobile phase was run in 0.1% formic acid in methanol/water (98/2, volume to volume), and the elution volume was 5 ul.

[4] = Short-term stability in human urine at room temperature; assay type: physicochemical; details: unextracted, bench-top light, six hours, 0.3, 19 and 38 μg/ml
Method: The applicability of the testing methodology to analyze samples stored under different conditions was analyzed. First, to assess short-term stability of DMB in human urine, samples at 0.3, 19 and 38 μg/ml, 92.3% of DMB were maintained unextracted at room temperature and at bench-top light levels for six hours. […] Second, to assess freeze/thaw stability of DMB in human urine, samples at 0.3, 19 and 38 μg/ml, 92.3% of DMB were stored at −70° C. and thawed. This process was repeated twice and samples after each freezing were analyzed for DMB as described. For each concentration and each freezing/thawing sample, the % CV was no more than 15%.

[5] = assay type: physicochemical, human; details: for Long-term freezer stability, Mean concentration / Long-term freezer stability, RE % (mean vs nominal): human
Method: as §1, with “The” for “The following LC-MS/MS conditions were applied for the analysis of underivatized sodium 2,2-dimethylbutyrate and DMV for stock solution stability analysis (2 to 3.5 month), and system suitability associated with these analyses: The”, “purposes.” for “purposes. Fresh stock solutions of sodium 2,2-dimethylbutyrate were prepared at intervals of two weeks and 1, 2, 3 and 3.5 months after the initial standard preparation. Similarly, the stability intervals for DMV were two weeks and 1, 2 and 3 months. The initial (or old) stock solutions and the fresh stock solutions were diluted into the calibration standard range and analyzed. The peak areas for the fresh (new) and old standard solutions were compared. Beginning with the 2-month stability analysis, sodium 2,2-dimethylbutyrate and DMV stock solutions were analyzed underivatized. This was done since the peak areas of both sodium 2,2-dimethylbutyrate and DMV varied among replicate derivatized preparations. Analyzing the standard solutions underivatized was a simpler procedure which gave more accurate and precise results”
QC-Low and QC-High plasma samples, which had been stored in a freezer at approximately −70° C. for one month and three months, were extracted in triplicate and analyzed. The CV % values for the QC-Low and QC-High stability samples range from 4.0% to 11.1%. To calculate the RE %, the measured mean concentration was compared to the nominal concentration. The RE % values for the QC-Low and QC-High stability samples range from −13.7% to 4.1%. All CV % values and RE % values are within the acceptance criteria (≦15% and ±15% respectively).

CCC(C)(C)C(=O)[O-].[Na+] [Sodium 2,2-Dimethylbutyrate]
Stock solution stability, RE % (to New) of old stock peak area ([1]; 1 Month Interval): 10.3% | Stock solution stability, RE % (to New) of old stock peak area ([1]; 2 Month Interval, underivatized): 2.2% | Stock solution stability, RE % (to New) of old stock peak area ([1]; 2 Week Interval): −8.6% | Stock solution stability, RE % (to New) of old stock peak area ([1]; 3 Month Interval, underivatized): 1.6% | Stock solution stability, RE % (to New) of old stock peak area ([1]; ~3.5 Month Interval, underivatized): −2.2% | Time stock solutions are stable ([1]; stock solution in acetonitrile/water stored in a refrigerator at approximately 4° C.): at least 3.5 months | Time stable in the extract in the freezer ([2]; human plasma extract, freezer at −20° C.): at least 8 hours | Extract freezer stability, Mean concentration ([2]; 0.6 μg/mL): 0.562 µg/mL | Extract freezer stability, RE % (mean vs nominal) ([2]; 0.6 μg/mL): −6.3% | Extract freezer stability, Mean concentration ([2]; 40 μg/mL): 34.8 µg/mL | Extract freezer stability, RE % (mean vs nominal) ([2]; 40 μg/mL): −13.0% | Time stock solutions are stable [3]: at least 115 days | Short-term stability in human urine [4]: stable | Time stable in freezer ([5]; human plasma, approximately −70° C.): up to three months | Long-term freezer stability, Mean concentration ([5]; 1 month, 0.6 μg/mL): 0.552 µg/mL | Long-term freezer stability, RE % (mean vs nominal) ([5]; 1 month, 0.6 μg/mL): −7.9% | Long-term freezer stability, Mean concentration ([5]; 1 month, 40 μg/mL): 38.2 µg/mL | Long-term freezer stability, RE % (mean vs nominal) ([5]; 1 month, 40 μg/mL): −4.6% | Long-term freezer stability, Mean concentration ([5]; 3 months, 0.6 μg/mL): 0.624 µg/mL | Long-term freezer stability, RE % (mean vs nominal) ([5]; 3 months, 0.6 μg/mL): 4.1% | Long-term freezer stability, Mean concentration ([5]; 3 months, 40 μg/mL): 34.5 µg/mL | Long-term freezer stability, RE % (mean vs nominal) ([5]; 3 months, 40 μg/mL): −13.7%
